Measured values as given in patent US9309224B2 (Deciphera Pharmaceuticals, LLC, priority 2013, dated 2016).

What was measured:
osteoclast precursors = test: Osteoclast tartrate-resistant acid phosphatase assay; type: cell-based; conditions: Osteoclast; 7-14 days, RANKL and M-CSF
Protocol: Diluted compound was transferred to a 384-well black clear bottom plate. Two-thousand five hundred osteoclast precursors (Lonza, Walkersville, Md.) were added per well in growth media containing Receptor Activator of Nuclear Factor Kappa-beta ligand (RANKL) and M-CSF (R&D Systems, Minneapolis, Minn.). Plates were incubated for 7-14 days at 37 degrees Celsius, 5% CO2, and 95% humidity to allow differentiation of osteoclast precursors. […] Tartrate-resistant acid phosphatase activity in the supernatant samples was determined using an acid phosphatase assay kit (Sigma, St. Louis, Mo.). Absorbance was measured at 550 nm using a plate reader. Data was analyzed using Prism software (Graphpad, San Diego, Calif.) to calculate IC50 values.

[1] = target: T1, unphosphorylated PDGFRβ kinase (uPDGFRβ, Seq. ID No. 3) (Homo sapiens, UniProt P09619); test: Unphosphorylated PDGFRβ kinase assay (pyruvate kinase/lactate dehydrogenase coupled); type: biochemical; conditions: ATP 500 μM
T1 construct: purchased DeCode
T1 sequence (P09619 557-1105): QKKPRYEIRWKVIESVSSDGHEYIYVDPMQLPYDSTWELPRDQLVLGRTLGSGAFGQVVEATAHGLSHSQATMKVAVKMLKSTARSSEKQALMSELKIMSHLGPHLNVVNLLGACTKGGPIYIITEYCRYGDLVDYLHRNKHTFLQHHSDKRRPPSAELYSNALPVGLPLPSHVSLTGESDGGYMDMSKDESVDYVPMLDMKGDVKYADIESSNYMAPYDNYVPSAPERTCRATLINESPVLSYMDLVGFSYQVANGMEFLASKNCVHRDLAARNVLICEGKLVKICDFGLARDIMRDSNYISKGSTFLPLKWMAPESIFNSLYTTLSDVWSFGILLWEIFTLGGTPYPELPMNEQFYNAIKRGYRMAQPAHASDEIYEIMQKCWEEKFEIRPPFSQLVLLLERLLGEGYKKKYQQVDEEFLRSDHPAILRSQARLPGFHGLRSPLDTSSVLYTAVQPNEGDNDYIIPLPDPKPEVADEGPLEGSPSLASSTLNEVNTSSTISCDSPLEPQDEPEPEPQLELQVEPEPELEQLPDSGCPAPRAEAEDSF
Text: Unphosyhorylated PDGFRβ (uPDGFRβkinase (Seq. ID No. 3) assay

[2] = target: T2, unphosphorylated c-FMS kinase (uFMS, Seq. ID no. 1) (Homo sapiens, UniProt P07333); test: uFMS kinase assay (pyruvate kinase/lactate dehydrogenase coupled); type: biochemical; conditions: ATP 500 μM
T2 construct: purchased Millipore
T2 sequence (P07333 538-972): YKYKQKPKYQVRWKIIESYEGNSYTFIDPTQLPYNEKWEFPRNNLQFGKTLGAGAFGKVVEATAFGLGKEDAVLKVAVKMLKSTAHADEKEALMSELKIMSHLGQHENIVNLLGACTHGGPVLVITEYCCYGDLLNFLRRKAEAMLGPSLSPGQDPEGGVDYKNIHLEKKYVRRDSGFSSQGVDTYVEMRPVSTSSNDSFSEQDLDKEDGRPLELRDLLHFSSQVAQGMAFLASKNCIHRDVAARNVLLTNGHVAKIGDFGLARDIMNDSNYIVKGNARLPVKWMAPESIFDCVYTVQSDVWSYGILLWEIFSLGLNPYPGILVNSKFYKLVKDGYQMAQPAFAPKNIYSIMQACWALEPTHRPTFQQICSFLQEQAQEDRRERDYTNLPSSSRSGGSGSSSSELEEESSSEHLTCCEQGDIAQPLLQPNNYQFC
Protocol: In this assay, the oxidation of NADH (thus the decrease at A340 nm) was continuously monitored spectrophometrically. The reaction mixture (100 μL) contained FMS (purchased from Millipore) (10 nM), polyE4Y (1 mg/mL), MgCl2 (10 mM), pyruvate kinase (4 units), lactate dehydrogenase (0.7 units), phosphoenol pyruvate (1 mM), NADH (0.28 mM) and ATP (500 μM) in 90 mM Tris buffer containing 0.2% octyl-glucoside and 1% DMSO, pH 7.5. The inhibition reaction was started by mixing serial diluted test compound with the above reaction mixture. The absorption at 340 nm was monitored continuously for 4 hours at 30° C. on Synergy 2 plate reader. The reaction rate was calculated using the 3 to 4 h time frame. Percent inhibition was obtained by comparison of reaction rate with that of a control (i.e. in the absence of test compound). IC50 values were calculated from a series of percent inhibition values determined at a range of inhibitor concentrations using software routines as implemented in the GraphPad Prism software package.

[3] = target: T3, unphosphorylated c-KIT kinase (uKIT, Seq. ID no. 2) (Homo sapiens, UniProt P10721); test: uKit kinase assay (pyruvate kinase/lactate dehydrogenase coupled); type: biochemical; conditions: ATP 2000 μM
T3 construct: uKit with N-terminal GST fusion used for
T3 sequence (P10721 with tags, fused parts or gaps): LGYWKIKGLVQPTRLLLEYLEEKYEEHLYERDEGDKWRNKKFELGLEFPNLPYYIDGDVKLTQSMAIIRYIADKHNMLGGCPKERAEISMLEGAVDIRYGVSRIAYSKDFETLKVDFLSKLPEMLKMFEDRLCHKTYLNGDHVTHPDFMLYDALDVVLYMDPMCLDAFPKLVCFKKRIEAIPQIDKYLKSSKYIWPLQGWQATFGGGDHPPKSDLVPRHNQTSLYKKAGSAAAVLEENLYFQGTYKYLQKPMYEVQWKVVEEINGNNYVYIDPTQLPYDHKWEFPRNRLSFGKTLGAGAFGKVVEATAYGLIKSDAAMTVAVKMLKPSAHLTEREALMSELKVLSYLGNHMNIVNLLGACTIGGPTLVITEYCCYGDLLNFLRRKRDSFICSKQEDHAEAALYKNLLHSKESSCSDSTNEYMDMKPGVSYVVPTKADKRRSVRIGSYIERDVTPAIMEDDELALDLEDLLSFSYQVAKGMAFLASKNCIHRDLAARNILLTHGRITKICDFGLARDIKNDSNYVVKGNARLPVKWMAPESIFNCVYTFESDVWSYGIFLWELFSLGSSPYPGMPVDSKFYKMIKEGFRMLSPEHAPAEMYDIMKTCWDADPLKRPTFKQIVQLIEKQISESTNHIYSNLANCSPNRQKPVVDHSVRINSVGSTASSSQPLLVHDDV
Protocol: In this assay, the oxidation of NADH (thus the decrease at A340 nm) was continuously monitored spectrophometrically. […] The inhibition reaction was started by mixing serial diluted test compound with the above reaction mixture. The absorption at 340 nm was monitored continuously for 4 hours at 30° C. on Synergy 2 plate reader (BioTech).

[4] = target: T4, phospho-FMS in THP-1 cells (Homo sapiens, UniProt P07333); test: Phospho-FMS ELISA assay in THP-1 cells; type: cell-based; conditions: 4 hours compound, M-CSF stimulated; read-out: pFMS inhibition in THP-1 cells
T4 construct: endogenous in cells; host or cells: THP-1 (ATCC TIB-202)
T4 sequence (P07333 20-972): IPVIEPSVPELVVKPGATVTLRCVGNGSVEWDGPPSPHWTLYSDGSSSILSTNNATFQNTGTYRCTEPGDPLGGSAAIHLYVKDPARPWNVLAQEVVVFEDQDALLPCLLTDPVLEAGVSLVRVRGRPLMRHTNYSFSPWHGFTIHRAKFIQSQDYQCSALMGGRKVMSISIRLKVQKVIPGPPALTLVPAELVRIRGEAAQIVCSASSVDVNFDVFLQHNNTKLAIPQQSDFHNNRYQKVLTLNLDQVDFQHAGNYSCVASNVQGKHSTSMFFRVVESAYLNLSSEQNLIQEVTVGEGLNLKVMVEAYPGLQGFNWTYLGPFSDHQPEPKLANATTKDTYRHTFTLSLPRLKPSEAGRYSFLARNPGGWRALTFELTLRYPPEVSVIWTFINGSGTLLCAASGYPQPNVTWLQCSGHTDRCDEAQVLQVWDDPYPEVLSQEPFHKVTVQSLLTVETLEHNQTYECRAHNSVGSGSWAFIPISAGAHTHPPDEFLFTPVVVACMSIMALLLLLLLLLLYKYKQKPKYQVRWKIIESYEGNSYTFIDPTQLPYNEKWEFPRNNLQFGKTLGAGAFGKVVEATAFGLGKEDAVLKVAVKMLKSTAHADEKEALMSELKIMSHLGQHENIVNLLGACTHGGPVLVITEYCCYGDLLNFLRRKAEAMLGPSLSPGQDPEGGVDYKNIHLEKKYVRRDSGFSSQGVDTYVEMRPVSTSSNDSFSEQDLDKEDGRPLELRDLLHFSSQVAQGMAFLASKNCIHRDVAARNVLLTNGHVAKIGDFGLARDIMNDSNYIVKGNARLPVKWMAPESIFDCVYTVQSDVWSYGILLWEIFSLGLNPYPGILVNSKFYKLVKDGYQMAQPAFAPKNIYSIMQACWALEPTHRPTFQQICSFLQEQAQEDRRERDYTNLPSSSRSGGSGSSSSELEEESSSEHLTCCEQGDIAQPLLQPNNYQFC
Protocol: In a separate 96 well black clear bottom plate, one hundred and fifty thousand THP-1 cells were added per well in 100 μL in assay medium. Fifty microliters of diluted compound was then added to the cells. […] Lysates were prepared and used to perform the phospho-FMS ELISA as described by the manufacturer (catalog #DYC3268, R & D Systems, Minneapolis, Minn.). GraphPad Prism was used to calculate IC50 values obtained from data generated from the ELISA assay.

M-NFS-60 cells = test: M-NFS-60 cell proliferation assay; type: cell-based; conditions: 67 h incubation, resazurin
Protocol: M-NFS-60 Cell Proliferation Assay A serial dilution of test compound was dispensed into a 384-well black clear bottom plate (Corning, Corning, N.Y.). Two thousand five hundred cells were added per well in 50 μL complete growth medium. […] IC50 values were calculated from a series of percent inhibition values determined at a range of inhibitor concentrations using software routines as implemented in the GraphPad Prism software package.

SMILES | IC50 (osteoclast precursors) | IC50 [1] | IC50 [2] | IC50 [3] | IC50 [4] | IC50 (M-NFS-60 cells)
CNC(=O)Nc1cc(Oc2ccc(NC(=O)NC(=O)C(C)(C)C)nc2)ccn1 [Example 79, N-((5-((2-(3-methylureido)pyridin-4-yl)oxy)pyridin-2-yl)carbamoyl)pivalamide] | 10 to 100 nM | 100 to 1000 nM | < 10 nM | > 1000 nM | 10 to 100 nM | 100 to 1000 nM
COC(C)(C)C(=O)NC(=O)Nc1cc(C)c(Oc2ccnc(NC(C)=O)c2)cn1 [Example 38, N-((5-((2-acetamidopyridin-4-yl)oxy)-4-methylpyridin-2-yl)carbamoyl)-2-methoxy-2-methylpropanamide] | 10 to 100 nM | 10 to 100 nM | < 10 nM | 100 to 1000 nM | < 10 nM | < 10 nM
Cc1nc(NC(=O)NC(=O)C(C)(C)C)ccc1Oc1ccnc(NC(=O)N2CCN(C)CC2)c1 [Example 69, 4-methyl-N-(4-((2-methyl-6-(3-pivaloylureido)pyridin-3-yl)oxy)pyridin-2-yl)piperazine-1-carboxamide] | < 10 nM | > 1000 nM | < 10 nM | > 1000 nM | < 10 nM | < 10 nM
CC1(C(=O)NC(=O)Nc2ccc(Oc3ccnc(NC(=O)C4CC4)c3)cn2)CC1 [Example 30, N-((5-((2-(cyclopropanecarboxamido)pyridin-4-yl)oxy)pyridin-2-yl)carbamoyl)-1-methylcyclopropanecarboxamide] | < 10 nM | 100 to 1000 nM | < 10 nM | 10 to 100 nM | < 10 nM | 10 to 100 nM
COC(C)(C)C(=O)NC(=O)Nc1ccc(Oc2ccnc(NC(C)=O)c2)c(C)n1 [Example 20, N-((5-((2-acetamidopyridin-4-yl)oxy)-6-methylpyridin-2-yl)carbamoyl)-2-methoxy-2-methylpropanamide] | 10 to 100 nM | > 1000 nM | 10 to 100 nM | > 1000 nM | < 10 nM | < 10 nM
CC(C)(C)C(=O)NC(=O)Nc1ccc(Oc2ccnc(NC(=O)N3CCOCC3)c2)cn1 [Example 46, N-(4-((6-(3-pivaloylureido)pyridin-3-yl)oxy)pyridin-2-yl)morpholine-4-carboxamide] | < 10 nM | 100 to 1000 nM | < 10 nM | 100 to 1000 nM | < 10 nM | < 10 nM
CCC(=O)Nc1cc(Oc2ccc(NC(=O)NC(=O)C(C)(C)OC)nc2)ccn1 [Example 37, 2-methoxy-2-methyl-N-((5-((2-propionamidopyridin-4-yl)oxy)pyridin-2-yl)carbamoyl)propanamide] | 10 to 100 nM | 100 to 1000 nM | < 10 nM | > 1000 nM | < 10 nM | 10 to 100 nM
CCC(=O)Nc1cc(Oc2ccc(NC(=O)NC(=O)C(C)(C)C)nc2)ccn1 [Example 24, N-((5-((2-propionamidopyridin-4-yl)oxy)pyridin-2-yl)carbamoyl)pivalamide] | < 10 nM | 100 to 1000 nM | 10 to 100 nM | 100 to 1000 nM | < 10 nM | 10 to 100 nM
CNC(=O)c1cc(Oc2ccc(NC(=O)NC(=O)C3(OC)CCCC3)nc2)ccn1 [Example 64, 4-((6-(3-(1-methoxycyclopentanecarbonyl)ureido)pyridin-3-yl)oxy)-N-methylpicolinamide] | 10 to 100 nM | > 1000 nM | < 10 nM | 100 to 1000 nM | < 10 nM | 10 to 100 nM
COC1(C(=O)NC(=O)Nc2ccc(Oc3ccnc(NC(C)=O)c3)cn2)CCCC1 [Example 67, N-((5-((2-acetamidopyridin-4-yl)oxy)pyridin-2-yl)carbamoyl)-1-methoxycyclopentanecarboxamide] | < 10 nM | 10 to 100 nM | 10 to 100 nM | 100 to 1000 nM | < 10 nM | < 10 nM
CC(=O)Nc1cc(Oc2ccc(NC(=O)NC(=O)C3(C(F)(F)F)CCC3)nc2)ccn1 [Example 25, N-((5-((2-acetamidopyridin-4-yl)oxy)pyridin-2-yl)carbamoyl)-1-(trifluoromethyl)cyclobutanecarboxamide] | < 10 nM | 100 to 1000 nM | 10 to 100 nM | > 1000 nM | < 10 nM | 10 to 100 nM

Further lines, with some results ahead:

IC50 (osteoclast precursors) | IC50 [1] | IC50 [2] | IC50 [3] | IC50 [4] | SMILES | IC50 (M-NFS-60 cells)
< 10 nM | 100 to 1000 nM | < 10 nM | > 1000 nM | < 10 nM | CCN1CCN(C(=O)Nc2cc(Oc3ccc(NC(=O)NC(=O)C(C)(C)C)nc3)ccn2)CC1 [Example 80, 4-ethyl-N-(4-((6-(3-pivaloylureido)pyridin-3-yl)oxy)pyridin-2-yl)piperazine-1-carboxamide] | 10 to 100 nM
< 10 nM | 10 to 100 nM | < 10 nM | 100 to 1000 nM | 10 to 100 nM | CN(C)C1CN(C(=O)Nc2cc(Oc3ccc(NC(=O)NC(=O)C(C)(C)C)nc3)ccn2)C1 [Example 77, 3-(dimethylamino)-N-(4-((6-(3-pivaloylureido)pyridin-3-yl)oxy)pyridin-2-yl)azetidine-1-carboxamide] | < 10 nM
< 10 nM | 10 to 100 nM | < 10 nM | 100 to 1000 nM | < 10 nM | CC(C)(C)C(=O)NC(=O)Nc1ccc(Oc2ccnc(NC(=O)N3CCC3)c2)cn1 [Example 48, N-(4-((6-(3-pivaloylureido)pyridin-3-yl)oxy)pyridin-2-yl)azetidine-1-carboxamide] | < 10 nM
< 10 nM | 10 to 100 nM | < 10 nM | > 1000 nM | < 10 nM | CN(C)[C@@H]1CCN(C(=O)Nc2cc(Oc3ccc(NC(=O)NC(=O)C(C)(C)C)nc3)ccn2)C1 [Example 68, (R)-3-(dimethylamino)-N-(4-((6-(3-pivaloylureido)pyridin-3-yl)oxy)pyridin-2-yl)pyrrolidine-1-carboxamide] | < 10 nM
< 10 nM | 100 to 1000 nM | < 10 nM | 100 to 1000 nM | 10 to 100 nM | CN(C)C(=O)Nc1cc(Oc2ccc(NC(=O)NC(=O)C3(C)CCOCC3)nc2)ccn1 [Example 65, N-((5-((2-(3,3-dimethylureido)pyridin-4-yl)oxy)pyridin-2-yl)carbamoyl)-4-methyltetrahydro-2H-pyran-4-carboxamide] | 10 to 100 nM
10 to 100 nM | 100 to 1000 nM | 10 to 100 nM | > 1000 nM | 10 to 100 nM | CN1CCC(C(=O)Nc2cc(Oc3ccc(NC(=O)NC(=O)C4(C)CC4)nc3)ccn2)CC1 [Example 33, 1-methyl-N-(4-((6-(3-(1-methylcyclopropanecarbonyl)ureido)pyridin-3-yl)oxy)pyridin-2-yl)piperidine-4-carboxamide] | 100 to 1000 nM
10 to 100 nM | 100 to 1000 nM | < 10 nM | > 1000 nM | < 10 nM | Cc1nc(NC(=O)NC(=O)C(C)(C)C)ccc1Oc1ccnc(NC(=O)C(C)C)c1 [Example 13, N-((5-((2-isobutyramidopyridin-4-yl)oxy)-6-methylpyridin-2-yl)carbamoyl)pivalamide] | < 10 nM
< 10 nM | 10 to 100 nM | < 10 nM | 100 to 1000 nM | 10 to 100 nM | COC1(C(=O)NC(=O)Nc2ccc(Oc3ccnc(NC(=O)C4CC4)c3)cn2)CC1 [Example 41, N-((5-((2-(cyclopropanecarboxamido)pyridin-4-yl)oxy)pyridin-2-yl)carbamoyl)-1-methoxycyclopropanecarboxamide] | 10 to 100 nM
< 10 nM | 100 to 1000 nM | < 10 nM | 100 to 1000 nM | < 10 nM | COC(C)(C)C(=O)NC(=O)Nc1ccc(Oc2ccnc(NC(=O)C3CC3)c2)cn1 [Example 31, N-(4-((6-(3-(2-methoxy-2-methylpropanoyl)ureido)pyridin-3-yl)oxy)pyridin-2-yl)cyclopropanecarboxamide] | 10 to 100 nM
10 to 100 nM | > 1000 nM | 10 to 100 nM | > 1000 nM | < 10 nM | COCCNC(=O)Nc1cc(Oc2ccc(NC(=O)NC(=O)C(C)(C)C)nc2)ccn1 [Example 82, N-((5-((2-(3-(2-methoxyethyl)ureido)pyridin-4-yl)oxy)pyridin-2-yl)carbamoyl)pivalamide] | 100 to 1000 nM
